Measurements taken from EP4702982A1, “VITALITY IMPROVING AGENT, COMPOSITION FOR IMPROVING VITALITY, AND FOOD COMPOSITION FOR IMPROVING VITALITY” (Med R&D Co. Ltd, priority 2023, dated 2024).

Tests used:
[1] = Body weight and food intake during 7-day oral administration; type: in vivo, ICR mouse; details: 20 mg/kg bupropion oral, daily for 7 days
Protocol: In the following Table 6, "LPS" indicates lipopolysaccharide. Furthermore, bupropion administered to a positive control group is an antidepressant. The mice in each group were kept for 7 days to be acclimatized, and then a pine needle extract was orally administered daily for 7 days. Thereafter, neuroinflammation was induced in the brain by a single intraperitoneal administration of LPS, and depression was developed. A tail suspension test was performed the day after the administration of LPS. In the tail suspension test, a SMART 3.0 video image behavior analysis device (Panlab S.L.U.) was used. The brain was removed the day after the tail suspension test, and the hippocampus was further collected and used in the experiment that will be described later.

CTNNB1 gene (β-catenin) = assay: Quantitative real-time PCR of hair growth-related gene CTNNB1 in HFDPCs; type: cell-based, human; set-up: key to CTNNB1: -: Expression was suppressed.; ±: No significant difference was observed in the expression enhancing effects at at least some of the concentrations.; +: A significant difference with p < 0.05 or more was observed in the expression enhancing effects at all concentrations.; ++: A significant difference with p < 0.01 or more was observed in the expression enhancing effects at all concentrations; details: for CTNNB1: extracts at a volume of 1/6,000 or 1/10,000 (Production Examples 1 and 6 at non-cytotoxic concentration), D-pinitol and shikimic acid at 1 µM and 10 µM; for expression enhancing effects for CTNNB1 (in words): summary of Table 5
Protocol: (§1) The pine needle extract of Production Example 1 was added to the culture medium for HFDPCs, and the expression of hair growth markers was measured by quantitative real-time PCR. As the hair growth markers, CTNNB1 gene (β-catenin), ALPL gene (alkaline phosphatase), and FGF1 gene (fiblobrast growth factor 1) were examined. It is known that β-catenin induces anagen of the hair cycle and promotes the proliferation of keratinocytes. ALPL is a representative hair growth marker in the hair papilla cells. FGF1 is a marker for morphogenesis of hair follicles. HFDPCs were seeded in a 6-well plate at a concentration of 5 × 10^4 cells/well and incubated at 37°C for 24 hours. Subsequently, the culture medium was removed and replaced with a culture medium containing a pine needle extract at a volume of 1/4,000 and 1/2,000. Furthermore, for a comparison, cells treated with a culture medium to which minoxidil (0.1 µM), an existing therapeutic agent for hair loss, was added, were also prepared. Subsequently, after 48 hours, the cells were washed with cold PBS, and total RNA was extracted using an ISOGEN kit (Nippon Gene Co., Ltd.). Subsequently, the total RNA was quantified using a NanoDrop 2000 spectrophotometer (Thermo Fisher Scientific, Inc.), and quantitative real-time PCR analysis was performed. […] Subsequently, real-time PCR was carried out using a 7500 Fast Real-Time PCR system (Software 1.3.1, Thermo Fisher Scientific, Inc.) and TaqMan probes specific for CTNNB1, ALPL, and FGF1. GAPDH was used as an endogenous control, and the 2^- △△Ct method was applied, to calculate the relative amount of mRNA in comparison with GAPDH. The effect of the pine needle extracts of Production Examples 3 to 6 on the hair growth-related genes was examined by the same method as that used in Experimental Example 6. Furthermore, the same examination was carried out for D-pinitol and shikimic acid. The pine needle extracts of Production Examples 3 to 6 were each added to the culture medium for cells at a volume of 1/6,000 or a volume of 1/10,000. The pine needle extracts of Production Examples 1 and 6 were each added to the culture medium for cells at a concentration at which cytotoxicity was not observed. D-pinitol was added to the culture medium for cells at 1 µM and 10 µM. Shikimic acid was added to the culture medium for cells at 1 µM and 10 µM. In the following Table 5, "CTNNB1", "ALPL", and "FGF1" indicate the evaluation results for the expression enhancing effects of each hair growth-related gene. […]

[2] = tested on: human primary hair papilla cells (HFDPC); assay: Cytotoxicity (MTT cell viability) in hair papilla cells; type: cell-based; set-up: key: -: No cytotoxicity was observed.; ±: The cell viability was reduced by 40% or more at a volume of 1/100.; +: The cell viability was reduced by 10% or more at a volume of 1/10,000.; ++: The cell viability was reduced by 40% or more at a volume of 1/10,000; details: same method as Experimental Example 4
Protocol: The cytotoxicity of the pine needle extract of Production Example 1 was examined. Regarding the cells, human primary hair papilla cells (HFDPC, purchased from PromoCell GmbH), which are mesenchymal cells isolated from the papilla of normal human scalp hair follicles, were used. HFDPCs were seeded on a collagen-coated 96-well plate at a concentration of 5 × 10^4 cells/well and incubated at 37°C in a humidified atmosphere of 5% CO2. As a culture medium, a hair papilla cell growth culture medium to which growth factors (bovine fetal serum, insulin, transferrin, triiodothyronine, bovine pituitary extract, and a cyproterone solution) had been added was used. After 24 hours, the culture medium for the cells was replaced with a culture medium to which a pine needle extract was added at a volume of 0 (control), 1/6,000, 1/5,000, 1/4,000, 1/3,000, 1/2,000, 1/1,000, 1/500, 1/250, or 1/100, and the cells were incubated for 48 hours. […] Specifically, an MTT reagent (5 mg/mL) was added to the cells, the cells were incubated for 8 hours, subsequently 10% sodium dodecyl sulfate (SDS) was added thereto, and the cells were incubated overnight. Thereafter, the absorbance at 570 nm was measured using a microplate reader, and the cell viability was quantified as a proportion (%) of the absorbance with respect to the absorbance of untreated cells. […]

[3] = tested on: FGF1 gene (fiblobrast growth factor 1); assay: Quantitative real-time PCR of hair growth-related gene FGF1 in HFDPCs; type: cell-based, human; set-up: key to FGF1: -: Expression was suppressed.; ±: No significant difference was observed in the expression enhancing effects at at least some of the concentrations.; +: A significant difference with p < 0.05 or more was observed in the expression enhancing effects at all concentrations.; ++: A significant difference with p < 0.01 or more was observed in the expression enhancing effects at all concentrations; details: for FGF1: extracts at a volume of 1/6,000 or 1/10,000 (Production Examples 1 and 6 at non-cytotoxic concentration), D-pinitol and shikimic acid at 1 µM and 10 µM; for expression enhancing effects for FGF1 (in words): summary of Table 5
Protocol: as §1

[4] = tested on: ALPL gene (alkaline phosphatase); assay: Quantitative real-time PCR of hair growth-related gene ALPL in HFDPCs; type: cell-based, human; set-up: key to ALPL: -: Expression was suppressed.; ±: No significant difference was observed in the expression enhancing effects at at least some of the concentrations.; +: A significant difference with p < 0.05 or more was observed in the expression enhancing effects at all concentrations.; ++: A significant difference with p < 0.01 or more was observed in the expression enhancing effects at all concentrations; details: for ALPL: extracts at a volume of 1/6,000 or 1/10,000 (Production Examples 1 and 6 at non-cytotoxic concentration), D-pinitol and shikimic acid at 1 µM and 10 µM; for expression enhancing effects for ALPL (in words): summary of Table 5
Protocol: as §1

Structure (SMILES) | Final body weight [1] | Increase in body weight (g / 7 days) [1] | Total amount of food intake (g / 7 days) [1] | Initial body weight ([1]; baseline) | CTNNB1 (CTNNB1 gene (β-catenin)) | expression enhancing effects for CTNNB1 (in words) (CTNNB1 gene (β-catenin)) | Cytotoxicity [2] | FGF1 [3] | expression enhancing effects for FGF1 (in words) [3] | ALPL [4] | expression enhancing effects for ALPL (in words) [4]
CC(NC(C)(C)C)C(=O)c1cccc(Cl)c1 (stereo not drawn) [bupropion] | 35.6 ± 0.7 g | 2.9 ± 0.4 g / 7 days | 25.0 ± 1.2 g / 7 days | 32.7 ± 0.8 g |  |  |  |  |  |  | 
O=C(O)C1=C[C@@H](O)[C@@H](O)[C@H](O)C1 [Shikimic acid] |  |  |  |  | + | exhibited expression enhancing effects | - | ++ | exhibited expression enhancing effects | ± | did not exhibit expression enhancing effects
CO[C@H]1[C@H](O)[C@@H](O)[C@@H](O)[C@H](O)[C@@H]1O [D-pinitol] |  |  |  |  | ++ | exhibited expression enhancing effects | - | ++ | exhibited expression enhancing effects | - | did not exhibit expression enhancing effects
